Consider 4 molecules from PubChem BioAssay (NCI).

Among the test systems are SF-295 CNS; SK-MEL-5 melanoma; PC-3 prostate; A498 renal; UO-31 renal; HCT-116 colon; MDA-MB-435; RPMI-8226 leukemia; HS 578T breast; RXF 393 renal; SNB-75 CNS; COLO 205 colon; NCI-H460 lung; HT29 colon; U251 CNS; SR leukemia; NCI-H522 lung; CCRF-CEM leukemia.
Holding throughout (assay): DTP human tumour cell line panel, 48 h

Each structure is given as a SMILES string.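 1) Cells in 96-well plates. 2) Compound, 48 h, 5 concentrations. 3) Linear interpolation between surrounding doses. 4) Unreached endpoint = highest concentration. At the GI50, growth is halved. Definition used: TGI = concentration required for complete inhibition of growth.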

`CN(C)CCCNC(=O)c1cc(NS(=O)(=O)c2ccc3c(c2)C(=O)c2ccccc2C3=O)cn1C`: the TGI (commonly the concentration giving total growth inhibition) in the assay with SF-295 CNS is 94.9 µM; in the assay on SK-MEL-5 melanoma, 37.4 µM; in the assay on PC-3 prostate, > 100 µM; in the assay with A498 renal, 42.6 µM; in the assay with UO-31 renal it was > 100 µM; in the assay on HCT-116 colon it was > 100 µM. Further, the TGI is 59 µM in the assay with MDA-MB-435; 53.2 µM with RPMI-8226 leukemia; > 100 µM in the assay on HS 578T breast; 57.4 µM in the assay with RXF 393 renal; 56 µM with SNB-75 CNS; > 100 µM with COLO 205 colon. In addition, the TGI in the assay with NCI-H460 lung was 54.9 µM; in the assay with HT29 colon it was 81.4 µM; with U251 CNS, > 100 µM; in the assay with SR leukemia, 85.2 µM; with NCI-H522 lung it was 52.5 µM; in the assay on CCRF-CEM leukemia, > 100 µM.

With `COc1ccc(CNc2nc(NCc3ccc(OC)cc3)nc(NC3CCCC3)n2)cc1`, the TGI with SF-295 CNS is > 31.5 µM; in the assay with SK-MEL-5 melanoma, 14 µM; with PC-3 prostate, > 100 µM; in the assay on A498 renal, > 100 µM; with UO-31 renal, > 91.1 µM; in the assay with HCT-116 colon it was 10.1 µM. The TGI in the assay with MDA-MB-435 is 4.95 µM; in the assay with RPMI-8226 leukemia, > 30.4 µM; in the assay with HS 578T breast it was > 21.3 µM; in the assay on RXF 393 renal, 3.61 µM; with SNB-75 CNS, > 100 µM; in the assay with COLO 205 colon, > 25.1 µM. For the same molecule, the TGI is > 33.8 µM with NCI-H460 lung; 13.6 µM with HT29 colon; > 25.3 µM in the assay with U251 CNS; > 100 µM with SR leukemia; > 19.9 µM in the assay with NCI-H522 lung; > 100 µM in the assay with CCRF-CEM leukemia. In the assay with A498 renal, the GI50 (as a rule, the concentration at which growth is held to half of that of the control) was 62.1 µM.

For `O=S(=O)(O)c1ccc2c(N=Nc3ccc(S(=O)(=O)O)c4ccccc34)c(O)c(S(=O)(=O)O)cc2c1`, the TGI in the assay with SF-295 CNS, in the assay on SK-MEL-5 melanoma, in the assay on PC-3 prostate, in the assay with A498 renal, with UO-31 renal and with HCT-116 colon was > 100 µM each time. The TGI with MDA-MB-435, with RPMI-8226 leukemia, in the assay with HS 578T breast, in the assay on RXF 393 renal, in the assay with SNB-75 CNS and in the assay with COLO 205 colon was > 100 µM in each case. Moreover, the TGI in the assay with NCI-H460 lung, in the assay on HT29 colon, in the assay with U251 CNS, in the assay with SR leukemia, with NCI-H522 lung and in the assay with CCRF-CEM leukemia was > 100 µM in each case.

On to `COC(=O)c1c(C)c2c(c(C)c1C(=O)OC)-c1c(C)ccc3ccc(C)c-2c13`, for which the TGI in the assay on SF-295 CNS was > 87.1 µM; with SK-MEL-5 melanoma, 95.8 µM; in the assay with PC-3 prostate, > 100 µM; in the assay with A498 renal, > 100 µM; with UO-31 renal, > 100 µM; in the assay with HCT-116 colon, > 100 µM. Moreover, the TGI with MDA-MB-435, with RPMI-8226 leukemia, with HS 578T breast, in the assay on RXF 393 renal, in the assay on SNB-75 CNS and in the assay with COLO 205 colon was > 100 µM throughout. The TGI in the assay on NCI-H460 lung was > 69.4 µM; in the assay with HT29 colon it was 29.6 µM; in the assay on U251 CNS it was > 100 µM; with SR leukemia, 46.9 µM; in the assay on NCI-H522 lung, > 100 µM; with CCRF-CEM leukemia it was > 100 µM.
